According to ChEMBL document CHEMBL1147753, “Biphenyl-4-ylcarbamoyl thiophene carboxylic acids as potent DHODH inhibitors” (Bioorg Med Chem Lett, 2006):

Assays:
[1] = target: Dihydroorotate dehydrogenase (quinone), mitochondrial (Homo sapiens, UniProt Q02127); assay: Inhibitory activity against recombinant human DHODH
[2] = test system: PBMC; assay: Antiproliferative activity on human PBMC; assay type: functional, cell-based

Chain of Dihydroorotate dehydrogenase (quinone), mitochondrial (Q02127 whole entry): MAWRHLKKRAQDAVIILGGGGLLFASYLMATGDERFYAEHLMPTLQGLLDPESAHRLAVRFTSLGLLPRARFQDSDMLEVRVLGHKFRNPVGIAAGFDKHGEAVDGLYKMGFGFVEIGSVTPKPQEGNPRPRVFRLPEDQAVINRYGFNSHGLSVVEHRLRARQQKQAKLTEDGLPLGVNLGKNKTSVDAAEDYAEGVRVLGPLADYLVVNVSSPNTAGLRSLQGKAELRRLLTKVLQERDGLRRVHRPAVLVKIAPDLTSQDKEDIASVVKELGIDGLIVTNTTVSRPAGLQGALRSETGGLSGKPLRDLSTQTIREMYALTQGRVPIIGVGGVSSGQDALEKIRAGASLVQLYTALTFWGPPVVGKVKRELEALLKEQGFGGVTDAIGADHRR

| SMILES | IC50 [1] | IC50 [2] |
| --- | --- | --- |
| O=C(O)c1cscc1C(=O)Nc1c(F)cc(-c2ccccc2OC(F)(F)F)cc1F | 10 nM | 2000 nM |
| COc1ccccc1-c1c(F)c(F)c(NC(=O)c2ccsc2C(=O)O)c(F)c1F | – | 2000 nM |
| O=C(O)c1cscc1C(=O)Nc1ccc(-c2ccccc2)cc1 | 1000 nM | – |
| CCOc1cccc(-c2cc(F)c(NC(=O)c3ccsc3C(=O)O)c(F)c2)c1 | 3 nM | – |
| CCOc1ccccc1-c1cc(F)c(NC(=O)c2ccsc2C(=O)O)c(F)c1 | 9 nM | – |
| COc1ccccc1-c1ccc(NC(=O)c2ccsc2C(=O)O)cc1Cl | 12 nM | – |
| COc1cccc(-c2ccc(NC(=O)c3csc(C(=O)O)c3C(=O)O)c(F)c2)c1 | > 1000 nM | – |
| CCOc1cccc(-c2cc(F)c(NC(=O)c3cocc3C(=O)O)c(F)c2)c1 | 16 nM | 15000 nM |
| COc1cccc(-c2ccc(NC(=O)c3cocc3C(=O)O)c(F)c2)c1 | 340 nM | – |
| COc1cccc(-c2ccc(NC(=O)c3c(C(=O)O)csc3C(=O)O)c(F)c2)c1 | > 1000 nM | – |
| COc1cccc(-c2ccc(NC(=O)c3ccsc3C(=O)O)c(F)c2)c1 | 44 nM | 20000 nM |
| O=C(Nc1ccc(-c2ccccc2)cc1)c1ccsc1C(=O)O | 303 nM | – |
| CCOc1ccccc1-c1cc(F)c(NC(=O)c2cscc2C(=O)O)c(F)c1 | 10 nM | – |
| COc1cccc(-c2ccc(NC(=O)c3cc(C(=O)O)sc3C(=O)O)c(F)c2)c1 | > 1000 nM | – |
